# Measurements reported in patent publication US9566312B2, “Cyclic peptides and use as medicines” (priority 2012, dated 2017).
# Like-named read-outs stand apart in the source and are kept apart here. Starred links: 1 amine or outer side, 2 acyl side, 3 side chain; linkers in the order of their positions; H or OH if unused. Non-standard residues stand in square brackets, D forms with d. Residues, ends and D or L forms follow the SMILES beside them. X26 = C[C@H](CN1CCn2c(nnc2C(F)(F)F)C1)[C@@H](C(=O)[*:2])N(C)[*:1]; X37 = C[C@H](CN1CCC(S(C)(=O)=O)CC1)[C@@H](C(=O)[*:2])N(C)[*:1]; X56 = CCN1CCN(C(=O)OC[C@@H](C)[C@@H](C(=O)[*:2])N(C)[*:1])CC1; X29 = CC(=O)N1CCN(C[C@@H](C)[C@@H](C(=O)[*:2])N(C)[*:1])CC1; X41 = CC(C)N1CCN(C[C@@H](C)[C@@H](C(=O)[*:2])N(C)[*:1])CC1; X55 = C[C@H](CN(C)CC(=O)N(C)C)[C@@H](C(=O)[*:2])N(C)[*:1]; X34 = C[C@H](COC(=O)N1CCOCC1)[C@@H](C(=O)[*:2])N(C)[*:1]; X32 = C[C@H](CN1CC2(COC2)C1)[C@@H](C(=O)[*:2])N(C)[*:1]; X53 = C[C@H](CN(C)Cc1cccnc1)[C@@H](C(=O)[*:2])N(C)[*:1]; X30 = C[C@H](CN1CCCOCC1)[C@@H](C(=O)[*:2])N(C)[*:1]; X43 = COCCN(C)C[C@@H](C)[C@@H](C(=O)[*:2])N(C)[*:1]; MeBmt = C/C=C/C[C@@H](C)[C@@H](O)[C@H](NC)C(=O)O; NMeL = CN[C@@H](CC(C)C)C(=O)O; NMeV = CN[C@H](C(=O)O)C(C)C; dNMeA = CN[C@H](C)C(=O)O; Abu = CC[C@H](N)C(=O)O
# Experiments:
# cyclophilin A (CypA) = cyclophilin A (CypA) (Homo sapiens (Human), UniProt P62937); assay: Inhibitor binding to cyclophilin proteins by SPR, CypA; design: unit not given here; conditions: 1:1 binding model;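 also: Single-cycle kinetics on a Biacore T200, compound injected at several concentrations for 1 min each at 50 µL/min, then 10 min dissociation, in HEPES pH 7.4 buffer with 3% DMSO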
# cyclophilin B (CypB) = cyclophilin B (CypB) (Homo sapiens (Human), UniProt P23284); assay: Inhibitor binding to cyclophilin proteins by SPR, CypB; design: unit not given here; conditions: 1:1 binding model
# How it was run: (§1)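 Running buffer: 10 mM HEPES pH 7.4, 150 mM NaCl, 0.05% P20, 3% DMSO, with compound present. Capture of avi-tagged mono-biotinylated cyclophilin; single-cycle series, 1 min contact, 10 min dissociation. Rates and affinity fitted to a 1:1 interaction model.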
# CypF = CypF (Homo sapiens (Human), UniProt P30405); assay: Inhibitor binding to cyclophilin proteins by SPR, CypF; conditions: 1:1 binding model
# How it was run: as §1
# [1] = system: genotype 1b subgenomic HCV replicon in Huh7.5 cells; format: cell-based, hepatitis C virus; conditions: read-out: RPLN-1b IC50
# How it was run: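 Huh7.5 cells carrying genotype 1b subgenomic HCV replicon with renilla luciferase-neomycin reporter, in phenol red-free DMEM without G418. Luciferase measured after 72 h compound exposure relative to DMSO-treated cells; cytotoxicity (CC50) by Cell Titer-Glo.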
# [2] = system: peripheral blood mononuclear cells (PBMC); assay: Anti-proliferative or immunosuppressive activity, BrdU incorporation in PHA-stimulated PBMC; format: cell-based; conditions: PHA 3 μg/ml, 60 hour compound treatment; read-out: EMV PBMC IC50
# How it was run: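 Fresh PBMCs from two donors, 30,000 per well in X-VIVO 15 medium, stimulated with 3 μg/ml PHA to drive T-cell proliferation. Proliferation measured as BrdU incorporation into DNA by BrdU ELISA.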
# [3] = molecular target: organic anion transporting polypeptide 1B1 (OATP1B1) (Homo sapiens (Human), UniProt Q9Y6L6); assay: OATP assay in CHO-OATP1B1 cells;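 also: inhibition of probe substrate uptake into the cells, ten minutes exposure, accumulated substrate read by fluorescence once cells were lysed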
# [4] = genotype 1b replicon, 72 h incubation
# Sequence of cyclophilin A (CypA) (P62937 whole entry): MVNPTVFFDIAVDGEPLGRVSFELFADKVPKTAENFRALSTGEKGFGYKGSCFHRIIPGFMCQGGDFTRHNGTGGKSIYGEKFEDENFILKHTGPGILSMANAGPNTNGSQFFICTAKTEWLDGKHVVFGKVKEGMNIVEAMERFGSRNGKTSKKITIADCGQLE
# Sequence of cyclophilin B (CypB) (P23284 34-216): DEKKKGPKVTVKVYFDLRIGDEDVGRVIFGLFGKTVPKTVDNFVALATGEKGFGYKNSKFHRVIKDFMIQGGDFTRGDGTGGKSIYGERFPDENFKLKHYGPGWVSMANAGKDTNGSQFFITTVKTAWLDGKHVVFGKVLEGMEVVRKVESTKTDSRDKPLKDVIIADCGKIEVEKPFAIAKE
# Sequence of CypF (P30405 30-207): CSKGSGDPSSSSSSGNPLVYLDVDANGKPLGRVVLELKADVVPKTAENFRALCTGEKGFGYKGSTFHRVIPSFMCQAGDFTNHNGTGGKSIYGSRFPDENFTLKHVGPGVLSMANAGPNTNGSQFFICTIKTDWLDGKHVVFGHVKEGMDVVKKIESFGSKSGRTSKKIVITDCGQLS
# Sequence of organic anion transporting polypeptide 1B1 (OATP1B1) (Q9Y6L6 whole entry): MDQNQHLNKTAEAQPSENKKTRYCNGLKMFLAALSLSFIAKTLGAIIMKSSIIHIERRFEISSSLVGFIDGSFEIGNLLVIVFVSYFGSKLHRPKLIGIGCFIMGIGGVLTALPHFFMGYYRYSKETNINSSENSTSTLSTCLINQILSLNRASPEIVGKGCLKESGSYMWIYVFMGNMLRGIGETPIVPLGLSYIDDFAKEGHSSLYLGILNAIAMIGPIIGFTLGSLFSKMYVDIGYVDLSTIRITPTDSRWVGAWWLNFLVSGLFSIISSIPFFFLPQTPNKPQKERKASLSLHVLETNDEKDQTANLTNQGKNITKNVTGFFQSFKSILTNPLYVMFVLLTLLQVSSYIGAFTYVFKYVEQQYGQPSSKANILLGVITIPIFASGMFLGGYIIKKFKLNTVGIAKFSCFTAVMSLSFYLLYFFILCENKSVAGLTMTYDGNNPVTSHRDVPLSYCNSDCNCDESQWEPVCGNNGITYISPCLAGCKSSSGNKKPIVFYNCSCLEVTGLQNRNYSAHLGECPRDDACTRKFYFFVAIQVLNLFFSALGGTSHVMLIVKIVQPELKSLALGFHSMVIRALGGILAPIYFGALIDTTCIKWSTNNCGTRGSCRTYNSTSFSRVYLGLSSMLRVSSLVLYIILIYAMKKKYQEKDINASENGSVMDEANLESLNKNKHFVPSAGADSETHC
SMILES,CypA Kd (cyclophilin A (CypA)),CypB Kd (cyclophilin B (CypB)),CypF Kd (CypF) [nM],IC50 [1] [nM],IC50 [2] [nM],IC50 [3] [nM],"IC50 [1, 4] [nM]"
"C/C=C/C[C@@H](C)[C@@H](O)[C@H]1C(=O)N[C@@H](CC)C(=O)N(C)[C@H](C)C(=O)N(C)[C@@H]([C@H](C)COC(=O)N2CCOCC2)C(=O)N[C@@H](C(C)C)C(=O)N(C)[C@@H](CC(C)C)C(=O)N[C@@H](C)C(=O)N[C@H](C)C(=O)N(C)[C@@H](CC(C)C)C(=O)N(C)[C@@H](CC(C)C)C(=O)N(C)[C@@H](C(C)C)C(=O)N1C [Compound 2.5.7, 3-[D-Ala]-4-[(2S,3S)-3-methyl-2-(methylamino)-4-((morpholine-4-carbonyl)oxy)butanoyl]-cyclosporin] (cyclo([MeBmt][Abu][dNMeA][X34]V[NMeL]A[dA][NMeL][NMeL][NMeV]))",2.1,1.3,1.5,48,19300,2300,–
"C/C=C/C[C@@H](C)[C@@H](O)[C@H]1C(=O)N[C@@H](CC)C(=O)N(C)[C@H](C)C(=O)N(C)[C@@H]([C@H](C)CN2CCN(C(C)C)CC2)C(=O)N[C@@H](C(C)C)C(=O)N(C)[C@@H](CC(C)C)C(=O)N[C@@H](C)C(=O)N[C@H](C)C(=O)N(C)[C@@H](CC(C)C)C(=O)N(C)[C@@H](CC(C)C)C(=O)N(C)[C@@H](C(C)C)C(=O)N1C [Compound 2.5.12, 3-[D-Ala]-4[(2S,3R)-2-Amino-4-(4-isopropyl-piperazin-1-yl)-butanoyl]-cyclosporin] (cyclo(A[dA][NMeL][NMeL][NMeV][MeBmt][Abu][dNMeA][X41]V[NMeL]))",1.0,0.7,0.4,–,3100,2440,44
"C/C=C/C[C@@H](C)[C@@H](O)[C@H]1C(=O)N[C@@H](CC)C(=O)N(C)[C@H](C)C(=O)N(C)[C@@H]([C@H](C)CN2CC3(COC3)C2)C(=O)N[C@@H](C(C)C)C(=O)N(C)[C@@H](CC(C)C)C(=O)N[C@@H](C)C(=O)N[C@H](C)C(=O)N(C)[C@@H](CC(C)C)C(=O)N(C)[C@@H](CC(C)C)C(=O)N(C)[C@@H](C(C)C)C(=O)N1C [Compound 2.5.16, 3-[D-Ala]-4-[(2S,3R)-3-methyl-2-(methylamino)-4-(2-oxa-6-azaspiro[3.3]heptan-6-yl)butanoyl]-cyclosporin] (cyclo(A[dA][NMeL][NMeL][NMeV][MeBmt][Abu][dNMeA][X32]V[NMeL]))",1.4,0.7,0.7,–,18000,3400,10
"C/C=C/C[C@@H](C)[C@@H](O)[C@H]1C(=O)N[C@@H](CC)C(=O)N(C)[C@H](C)C(=O)N(C)[C@@H]([C@H](C)CN2CCn3c(nnc3C(F)(F)F)C2)C(=O)N[C@@H](C(C)C)C(=O)N(C)[C@@H](CC(C)C)C(=O)N[C@@H](C)C(=O)N[C@H](C)C(=O)N(C)[C@@H](CC(C)C)C(=O)N(C)[C@@H](CC(C)C)C(=O)N(C)[C@@H](C(C)C)C(=O)N1C [Compound 2.5.19, 3-[D-Ala]-4-[(2S,3R)-3-methyl-2-(methylamino)-4-(3-(trifluoromethyl)-5,6-dihydro-[1,2,4]triazolo[4,3-a]pyrazin-7(8H)-yl)butanoyl]-cyclosporin] (cyclo(A[dA][NMeL][NMeL][NMeV][MeBmt][Abu][dNMeA][X26]V[NMeL]))",2.8,1.2,1.6,–,12600,1000,75
"C/C=C/C[C@@H](C)[C@@H](O)[C@H]1C(=O)N[C@@H](CC)C(=O)N(C)[C@H](C)C(=O)N(C)[C@@H]([C@H](C)CN2CCC(S(C)(=O)=O)CC2)C(=O)N[C@@H](C(C)C)C(=O)N(C)[C@@H](CC(C)C)C(=O)N[C@@H](C)C(=O)N[C@H](C)C(=O)N(C)[C@@H](CC(C)C)C(=O)N(C)[C@@H](CC(C)C)C(=O)N(C)[C@@H](C(C)C)C(=O)N1C [Compound 2.5.20, 3-[D-Ala]-4-[(2S,3R)-3-methyl-2-(methylamino)-4-(4-(methylsulfonyl)piperidin-1-yl)butanoyl]-cyclosporin] (cyclo(A[dA][NMeL][NMeL][NMeV][MeBmt][Abu][dNMeA][X37]V[NMeL]))",3.7,1.2,1.6,–,29200,1800,109
"C/C=C/C[C@@H](C)[C@@H](O)[C@H]1C(=O)N[C@@H](CC)C(=O)N(C)[C@H](C)C(=O)N(C)[C@@H]([C@H](C)CN2CCCOCC2)C(=O)N[C@@H](C(C)C)C(=O)N(C)[C@@H](CC(C)C)C(=O)N[C@@H](C)C(=O)N[C@H](C)C(=O)N(C)[C@@H](CC(C)C)C(=O)N(C)[C@@H](CC(C)C)C(=O)N(C)[C@@H](C(C)C)C(=O)N1C [Compound 2.5.21, 3-[D-Ala]-4-[(2S,3R)-3-methyl-2-(methylamino)-4-(1,4-oxazepan-4-yl)butanoyl]-cyclosporin] (cyclo(A[dA][NMeL][NMeL][NMeV][MeBmt][Abu][dNMeA][X30]V[NMeL]))",1.9,0.9,0.8,–,4500,1700,37
"C/C=C/C[C@@H](C)[C@@H](O)[C@H]1C(=O)N[C@@H](CC)C(=O)N(C)[C@H](C)C(=O)N(C)[C@@H]([C@H](C)CN(C)CCOC)C(=O)N[C@@H](C(C)C)C(=O)N(C)[C@@H](CC(C)C)C(=O)N[C@@H](C)C(=O)N[C@H](C)C(=O)N(C)[C@@H](CC(C)C)C(=O)N(C)[C@@H](CC(C)C)C(=O)N(C)[C@@H](C(C)C)C(=O)N1C [Compound 2.5.22, 3-[D-Ala]-4-[(2S,3R)-4-((2-methoxyethyl)(methyl)amino)-3-methyl-2-(methylamino)butanoyl]-cyclosporin] (cyclo(A[dA][NMeL][NMeL][NMeV][MeBmt][Abu][dNMeA][X43]V[NMeL]))",1.7,0.9,0.9,–,8900,1900,41
"C/C=C/C[C@@H](C)[C@@H](O)[C@H]1C(=O)N[C@@H](CC)C(=O)N(C)[C@H](C)C(=O)N(C)[C@@H]([C@H](C)CN2CCN(C(C)=O)CC2)C(=O)N[C@@H](C(C)C)C(=O)N(C)[C@@H](CC(C)C)C(=O)N[C@@H](C)C(=O)N[C@H](C)C(=O)N(C)[C@@H](CC(C)C)C(=O)N(C)[C@@H](CC(C)C)C(=O)N(C)[C@@H](C(C)C)C(=O)N1C [Compound 2.5.23, 3-[D-Ala]-4-[(2S,3R)-4-(4-acetylpiperazin-1-yl)-3-methyl-2-(methylamino)butanoyl]-cyclosporin] (cyclo(A[dA][NMeL][NMeL][NMeV][MeBmt][Abu][dNMeA][X29]V[NMeL]))",1.6,0.7,0.8,–,22800,2300,47
"C/C=C/C[C@@H](C)[C@@H](O)[C@H]1C(=O)N[C@@H](CC)C(=O)N(C)[C@H](C)C(=O)N(C)[C@@H]([C@H](C)COC(=O)N2CCN(CC)CC2)C(=O)N[C@@H](C(C)C)C(=O)N(C)[C@@H](CC(C)C)C(=O)N[C@@H](C)C(=O)N[C@H](C)C(=O)N(C)[C@@H](CC(C)C)C(=O)N(C)[C@@H](CC(C)C)C(=O)N(C)[C@@H](C(C)C)C(=O)N1C [Compound 2.5.24, 3-[D-Ala]-4-[(2S,3S)-4-((4-ethylpiperazine-1-carbonyl)oxy)-3-methyl-2-(methylamino)butanoyl]-cyclosporin] (cyclo(A[dA][NMeL][NMeL][NMeV][MeBmt][Abu][dNMeA][X56]V[NMeL]))",0.5,0.3,0.3,–,3600,1900,23
"C/C=C/C[C@@H](C)[C@@H](O)[C@H]1C(=O)N[C@@H](CC)C(=O)N(C)[C@H](C)C(=O)N(C)[C@@H]([C@H](C)CN(C)Cc2cccnc2)C(=O)N[C@@H](C(C)C)C(=O)N(C)[C@@H](CC(C)C)C(=O)N[C@@H](C)C(=O)N[C@H](C)C(=O)N(C)[C@@H](CC(C)C)C(=O)N(C)[C@@H](CC(C)C)C(=O)N(C)[C@@H](C(C)C)C(=O)N1C [Compound 2.5.25, 3-[D-Ala]-4-[(2S,3R)-3-methyl-4-(methyl(pyridin-3-ylmethyl)amino)-2-(methylamino)butanoyl]-cyclosporin] (cyclo(A[dA][NMeL][NMeL][NMeV][MeBmt][Abu][dNMeA][X53]V[NMeL]))",1.8,1.0,1,–,5600,1000,22
"C/C=C/C[C@@H](C)[C@@H](O)[C@H]1C(=O)N[C@@H](CC)C(=O)N(C)[C@H](C)C(=O)N(C)[C@@H]([C@H](C)CN(C)CC(=O)N(C)C)C(=O)N[C@@H](C(C)C)C(=O)N(C)[C@@H](CC(C)C)C(=O)N[C@@H](C)C(=O)N[C@H](C)C(=O)N(C)[C@@H](CC(C)C)C(=O)N(C)[C@@H](CC(C)C)C(=O)N(C)[C@@H](C(C)C)C(=O)N1C [Compound 2.5.27, 3-[D-Ala]-4-[(2S,3R)-4-((2-(dimethylamino)-2-oxoethyl)(methyl)amino)-3-methyl-2-(methylamino)butanoyl]-cyclosporin] (cyclo(A[dA][NMeL][NMeL][NMeV][MeBmt][Abu][dNMeA][X55]V[NMeL]))",1.4,0.8,0.8,–,14800,2700,26
